Test results: patent EP2575807B1, “FORMULATION BASED ON SULPIRIDE AND A SYNERGISTIC HOMEOPATHIC COMPOSITION FOR TREATMENT OF DEPRESSIVE SYNDROME” (Novak, Maja, priority 2010, dated 2011)

Columns and labels:
[1] = test system: women suffering of depressive syndrome; assay: Controlled study of antidepressant activity, Hamilton rating scale for depression (HAMD test); assay type: in vivo
Experimental: They are divided onto two groups by randomization: • (i) A control group (N = 32) received once-a-day combined (in the same syringe) dose of 20 mg of sulpiride (1; 0.4 mL) diluted with physiological solution (2.0 mL) by subcutaneous injection during three months (90 days).
The duration of administering was three months (90 days; also subcutaneously).
Neurosurg. Psychiatr. […] Psychiatr.
For the 17-item version of HAMD test, scores can range from 0 to 54. […]
The above results were subjected to paired T-test. […] Paired T-test is usually chosen to establish the difference between groups, i.e. their mean values during the Study.
The study was followed by the use of Hamilton rating scale for depression (HAMD test).

[2] = cited from earlier work

For `CCN1CCCC1CNC(=O)c1cc(S(N)(=O)=O)ccc1OC` (racemic) [sulpiride, (R,S)-(±)-5-(aminosulfonyl)-N-[(1-ethylpyrrolidin-2-yl)methyl]-2-methoxybenzamide], the HAMD ([1]; After the Study, once-a-day subcutaneous injection, 20 mg of sulpiride, three months (90 days)) was 17.34 ± 8.77, the HAMD ([1]; Before the Study (baseline), 17-item HAMD score, range 0 to 54) was 18.91 ± 9.19 and the “Mean difference (paired T-test, HAMD before vs after the Study)” value ([1]; once-a-day subcutaneous injection, 20 mg of sulpiride, 90 days) was 1.60. The oral bioavailability [2] was 25-35%.
